Laboratory results from PMC2743263 (Nature chemical biology, 2009).

Experiments:
[1] = biological target: T1, cellular MTAN activity in V. cholerae N16961 (Vibrio cholerae serotype O1, UniProt Q9KPI8); type: cell-based; details: cellular IC50 versus Ki*
T1 sequence (Q9KPI8 1-231): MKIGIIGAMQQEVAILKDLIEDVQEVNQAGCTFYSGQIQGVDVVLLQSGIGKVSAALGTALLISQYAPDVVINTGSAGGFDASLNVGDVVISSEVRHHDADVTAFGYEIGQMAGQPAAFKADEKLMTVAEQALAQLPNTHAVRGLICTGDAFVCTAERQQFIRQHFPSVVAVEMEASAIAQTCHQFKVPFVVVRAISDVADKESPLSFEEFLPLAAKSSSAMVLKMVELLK

V. cholerae N16961 = assay: Growth of V. cholerae; type: cell-based, Vibrio cholerae
E. coli O157:H7 = assay: Growth of E. coli; type: cell-based, Escherichia coli
[2] = system: autoinducer-2 production in E. coli O157:H7; assay: Autoinducer-2 production after prolonged incubation; type: cell-based, Escherichia coli; details: E. coli O157:H7, LB, 26 generations, 1 μM; untreated 195-fold
[3] = system: autoinducer-2 production in V. cholerae N16961; assay: as above; type: cell-based, Vibrio cholerae; details: V. cholerae N16961, LB, 26 generations, untreated 540-fold
[4] = system: autoinducer production by V. cholerae N16961; assay: microbe, parasite or virus in culture; details: Vibrio cholerae, read-out: AI Inhibition IC50, BB170
E. coli MTAN (EcMTAN) = details: read-out: dissociation constant; cited from earlier work
VcMTAN = biological target: T2, VcMTAN (Vibrio cholerae serotype O1, UniProt Q9KPI8); assay: VcMTAN substrate kinetics, loss of MTA at 274 nm; type: biochemical
T2 sequence (Q9KPI8 1-231): T1 sequence (Q9KPI8 1-231)

Q: Which “increase above Ki* required to inhibit VcMTAN activity in the cell” value [1] does the source give for `CCCCSC[C@H]1CN(Cc2c[nH]c3c(N)ncnc23)C[C@@H]1O` [BuT-DADMe-ImmA, 5′-butylthio-DADMe-ImmucillinA] here?
A: 30 fold

Q: What about the “growth of cells in the biofilm assay” value (V. cholerae N16961; V. cholerae N16961, 1 μM, static, 25 °C) of the same compound?
A: did not inhibit growth

Q: And the growth (V. cholerae N16961; V. cholerae N16961, 26 generations, 1 or 2.5 μM)?
A: remained uninhibited

Q: What about the “effect on cell growth (OD600)” value (V. cholerae N16961; overnight culture, concentrations up to 1 μM) of the same compound?
A: without affecting growth

Q: What about the “growth of cells in the biofilm assay” value (E. coli O157:H7; E. coli O157:H7, 1 μM, static, 25 °C) of the same compound?
A: did not inhibit growth

Q: What about the growth (E. coli O157:H7; E. coli O157:H7, 26 generations, 1 or 2.5 μM) of the same compound?
A: remained uninhibited

Q: What about the growth (E. coli O157:H7; E. coli O157:H7 and MTAN knockout strain, AB medium, up to 0.5 μM) of the same compound?
A: no growth defects

Q: What about the “light induction in BB170” value [2] of the same compound?
A: 1.4 fold

Q: What about the “quorum sensing signal (light induction in BB170)” value ([3]; 1 μM) of the same compound?
A: 4.2 fold

Q: What about the “quorum sensing signal (light induction in BB170)” value ([3]; 2.5 μM) of the same compound?
A: 1.3 fold

Q: What about the IC50 [4] of the same compound?
A: 1.4 ± 0.3 nM

Q: With `CCSC[C@H]1CN(Cc2c[nH]c3c(N)ncnc23)C[C@@H]1O` [EtT-DADMe-ImmA, 5′-ethylthio-DADMe-ImmucillinA] as the compound, how does the IC50 [4] read?
A: 11 ± 2 nM

Q: Which Ki (E. coli MTAN (EcMTAN)) does the source give for `CSC[C@H]1CN(Cc2c[nH]c3c(N)ncnc23)C[C@@H]1O` [MT-DADMe-ImmA, 5′-methylthio-DADMe-ImmucillinA] here?
A: 2 pM

Q: And the IC50 [4]?
A: 0.94 ± 0.13 nM

Q: Which results are given for `CSC[C@H]1O[C@@H](n2cnc3c(N)ncnc32)[C@H](O)[C@@H]1O` [MTA, methylthioadenosine]?
A: Km (VcMTAN): 3 µM; kcat (VcMTAN): 2 s⁻¹
